Test results reported in ChEMBL document CHEMBL1145105, “Synthesis and benzodiazepine receptor affinity of pyrazolo[1,5-a]pyrimidine derivatives. 3. New 6-(3-thienyl) series as alpha 1 selective ligands” (J Med Chem, 2003).
“And” between values parts separate entries of the source, which are not always exact repeats. Identical values can stand only once.

How the values were obtained:
[1] = target: T1, GABA-A receptor; anion channel (Bos taurus) (UniProt P10063+P08220+P20237+P08219+P10064+P22300); experiment: Percent inhibition of [3H]Ro-151788 binding to bovine brain GABA-A central benzodiazepine receptor at 0.2 nM
[2] = test system: Mus musculus; experiment: Muscle relaxant effect in mice at peroral dose of 0.3 mg/kg using rotarod test, value was expressed as no. of falls in 30 seconds; format: functional; details: route oral
[3] = test system: Mus musculus; experiment: Antianxiety activity was tested in mice at peroral dose of 1 mg/kg in light; format: functional; details: route oral
[4] = test system: Mus musculus; experiment: Muscle relaxant effect in mice at peroral dose of 1 mg/kg using rotarod test, value was expressed as no. of falls in 30 seconds; format: functional; details: route oral
[5] = test system: Mus musculus; experiment: Antianxiety activity was tested in mice at peroral dose of 1 mg/kg using light/dark box test; format: functional; details: route oral
[6] = test system: Mus musculus; experiment: Antianxiety activity was tested in mice at peroral dose of 0.3 mg/kg using light/dark box test; format: functional; details: route oral
[7] = test system: Mus musculus; experiment: Antianxiety activity was tested in mice at peroral dose of 0.3 mg/kg in light; format: functional; details: route oral
[8] = target: GABA A receptor alpha-5/beta-3/gamma-2 (Rattus norvegicus, UniProt P18508+P19969+P63079); experiment: Binding affinity for recombinant rat GABA-A receptor alpha-5-beta-3-gamma-2 subunits expressed in HEK 293 cells; format: cell-based, HEK293
[9] = target: T1, GABA-A receptor; anion channel (Bos taurus); experiment: Relative binding to GABA-A receptor in the presence and absence of GABA (GABA shift), Ki(-GABA)/Ki(+GABA); format: protein-complex assay
[10] = target: T2, GABA A receptor alpha-2/beta-2/gamma-2 (Rattus norvegicus, UniProt P18508+P23576+P63138); experiment: Binding affinity for recombinant rat GABA-A receptor alpha-2-beta-2-gamma-2 subunits expressed in HEK293 cells; format: cell-based
[11] = target: GABA-A receptor; anion channel; experiment: Inhibition of [3H]Ro-151788 binding to GABA-A central benzodiazepine receptor of bovine brain membranes; format: cell membranes, Bos taurus
[12] = target: GABA-A receptor; alpha-1/beta-2/gamma-2 (Rattus norvegicus, UniProt P18508+P62813+P63138); experiment: Binding affinity for recombinant rat GABA-A receptor alpha-1-beta-2-gamma-2 subunits expressed in HEK293 cells; format: cell-based
[13] = test system: Mus musculus; experiment: Synergic sedative effect was tested in mice using the Hole Board test at peroral dose of 10 mg/kg, value was expressed in plane; format: functional; details: route oral
[14] = test system: Mus musculus; experiment: Synergic sedative effect was tested in mice using the Hole Board test at peroral dose of 10 mg/kg, value was expressed in holes; format: functional; details: route oral
[15] = test system: Mus musculus; experiment: Muscle relaxant effect in mice at dose of 10 mg/kg using rotarod test, value was expressed as no. of falls in 30 seconds; format: functional
[16] = test system: Mus musculus; experiment: Percent anticonvulsant activity against PTZ induced attack in mice at dose of 10 mg/kg; format: functional
[17] = test system: Mus musculus; experiment: Antianxiety activity was tested in mice at dose of 10 mg/kg in light; format: functional
[18] = test system: Mus musculus; experiment: Antianxiety activity was tested in mice at dose of 10 mg/kg using light/dark box test; format: functional
[19] = test system: Mus musculus; experiment: Antianxiety activity was tested in mice at dose of 30 mg/kg using light/dark box test; format: functional
[20] = test system: Mus musculus; experiment: Muscle relaxant effect in mice at dose of 30 mg/kg using rotarod test, value was expressed as no. of falls in 30 seconds; format: functional
[21] = test system: Mus musculus; experiment: Percent anticonvulsant activity against PTZ induced attack in mice at dose of 30 mg/kg; format: functional
[22] = test system: Mus musculus; experiment: Antianxiety activity was tested in mice at dose of 30 mg/kg in light; format: functional
[23] = target: GABA A receptor alpha-3/beta-2/gamma-2 (Rattus norvegicus, UniProt P18508+P20236+P63138); experiment: Binding affinity for recombinant rat GABA-A receptor alpha-3-beta-2-gamma-2 subunits expressed in HEK293 cells; format: cell-based
[24] = test system: Mus musculus; experiment: Synergic sedative effect was tested in mice using the Hole Board test at peroral dose of 30 mg/kg, value was expressed in plane; format: functional; details: route oral
[25] = test system: Mus musculus; experiment: Synergic sedative effect was tested in mice using the Hole Board test at peroral dose of 30 mg/kg, value was expressed in holes; format: functional; details: route oral
[26] = target: T2, GABA A receptor alpha-2/beta-2/gamma-2; experiment: Binding affinity for recombinant rat alpha-2-beta-2-gamma-2 GABA-A receptor subunits expressed in HEK293 cells; format: cell-based
[27] = test system: Mus musculus; experiment: Synergic sedative effect was tested in mice using the Hole Board test at peroral dose of 3 mg/kg, value was expressed in holes; format: functional; details: route oral
[28] = test system: Mus musculus; experiment: Percent anticonvulsant activity against PTZ induced attack in mice at dose of 3 mg/kg; format: functional
[29] = test system: Mus musculus; experiment: Muscle relaxant effect in mice at dose of 3 mg/kg using rotarod test, value was expressed as no. of falls in 30 seconds; format: functional
[30] = test system: Mus musculus; experiment: Synergic sedative effect was tested in mice using the Hole Board test at peroral dose of 3 mg/kg, value was expressed in plane; format: functional; details: route oral

Chain of GABA A receptor alpha-5/beta-3/gamma-2 (P18508 whole entry): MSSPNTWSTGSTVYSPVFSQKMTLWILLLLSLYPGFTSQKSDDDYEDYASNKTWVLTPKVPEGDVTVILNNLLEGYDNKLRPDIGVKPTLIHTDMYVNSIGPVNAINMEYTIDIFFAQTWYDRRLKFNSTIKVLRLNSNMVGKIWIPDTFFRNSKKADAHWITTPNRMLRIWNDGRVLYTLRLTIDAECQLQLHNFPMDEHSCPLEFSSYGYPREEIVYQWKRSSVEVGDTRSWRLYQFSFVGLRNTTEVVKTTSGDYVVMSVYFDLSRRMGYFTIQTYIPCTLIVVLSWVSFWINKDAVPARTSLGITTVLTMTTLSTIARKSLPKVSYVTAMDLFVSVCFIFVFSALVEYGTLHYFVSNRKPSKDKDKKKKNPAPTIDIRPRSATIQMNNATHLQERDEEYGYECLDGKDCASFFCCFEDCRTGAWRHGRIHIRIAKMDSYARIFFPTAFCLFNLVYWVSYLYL
Chain of GABA A receptor alpha-5/beta-3/gamma-2 (P19969 whole entry): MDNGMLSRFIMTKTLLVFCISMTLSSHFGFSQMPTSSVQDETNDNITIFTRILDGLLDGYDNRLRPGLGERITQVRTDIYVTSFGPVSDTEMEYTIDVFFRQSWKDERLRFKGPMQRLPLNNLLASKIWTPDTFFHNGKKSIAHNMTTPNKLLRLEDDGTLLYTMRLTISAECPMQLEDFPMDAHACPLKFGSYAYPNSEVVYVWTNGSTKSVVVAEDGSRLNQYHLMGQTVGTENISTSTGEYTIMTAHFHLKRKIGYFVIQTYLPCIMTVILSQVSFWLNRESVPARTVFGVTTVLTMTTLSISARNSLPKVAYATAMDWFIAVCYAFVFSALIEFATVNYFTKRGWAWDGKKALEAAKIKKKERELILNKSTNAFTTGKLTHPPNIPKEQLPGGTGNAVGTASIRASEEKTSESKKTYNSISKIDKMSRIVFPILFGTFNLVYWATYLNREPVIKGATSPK
Chain of GABA A receptor alpha-5/beta-3/gamma-2 (P63079 whole entry): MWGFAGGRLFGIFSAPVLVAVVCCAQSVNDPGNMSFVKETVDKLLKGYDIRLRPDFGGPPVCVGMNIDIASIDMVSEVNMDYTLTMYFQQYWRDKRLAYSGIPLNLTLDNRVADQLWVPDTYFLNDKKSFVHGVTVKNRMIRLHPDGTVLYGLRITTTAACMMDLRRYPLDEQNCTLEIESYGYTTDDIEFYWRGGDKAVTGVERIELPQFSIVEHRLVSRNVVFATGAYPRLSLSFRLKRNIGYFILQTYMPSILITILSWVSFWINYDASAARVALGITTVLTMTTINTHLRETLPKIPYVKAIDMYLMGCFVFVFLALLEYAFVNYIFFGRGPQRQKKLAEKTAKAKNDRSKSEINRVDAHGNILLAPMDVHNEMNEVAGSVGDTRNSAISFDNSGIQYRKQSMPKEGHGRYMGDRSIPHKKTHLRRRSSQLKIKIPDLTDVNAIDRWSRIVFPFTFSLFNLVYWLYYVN
Chain of GABA A receptor alpha-3/beta-2/gamma-2 (P18508 whole entry): as the sequence (P18508 whole entry) above
Chain of GABA A receptor alpha-3/beta-2/gamma-2 (P20236 whole entry): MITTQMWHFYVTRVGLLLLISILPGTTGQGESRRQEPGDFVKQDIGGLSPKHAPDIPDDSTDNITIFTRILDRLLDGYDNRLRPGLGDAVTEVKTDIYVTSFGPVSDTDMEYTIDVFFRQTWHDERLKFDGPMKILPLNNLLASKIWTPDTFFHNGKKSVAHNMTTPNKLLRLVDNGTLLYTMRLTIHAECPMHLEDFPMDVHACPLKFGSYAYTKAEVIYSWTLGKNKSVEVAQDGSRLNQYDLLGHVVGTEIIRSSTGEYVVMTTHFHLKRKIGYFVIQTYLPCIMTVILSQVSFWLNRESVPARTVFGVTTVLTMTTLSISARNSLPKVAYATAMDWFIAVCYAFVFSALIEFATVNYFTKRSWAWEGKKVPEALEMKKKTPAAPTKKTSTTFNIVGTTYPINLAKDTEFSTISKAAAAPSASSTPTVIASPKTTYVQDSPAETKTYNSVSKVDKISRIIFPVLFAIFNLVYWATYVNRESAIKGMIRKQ
Chain of GABA A receptor alpha-3/beta-2/gamma-2 (P63138 whole entry): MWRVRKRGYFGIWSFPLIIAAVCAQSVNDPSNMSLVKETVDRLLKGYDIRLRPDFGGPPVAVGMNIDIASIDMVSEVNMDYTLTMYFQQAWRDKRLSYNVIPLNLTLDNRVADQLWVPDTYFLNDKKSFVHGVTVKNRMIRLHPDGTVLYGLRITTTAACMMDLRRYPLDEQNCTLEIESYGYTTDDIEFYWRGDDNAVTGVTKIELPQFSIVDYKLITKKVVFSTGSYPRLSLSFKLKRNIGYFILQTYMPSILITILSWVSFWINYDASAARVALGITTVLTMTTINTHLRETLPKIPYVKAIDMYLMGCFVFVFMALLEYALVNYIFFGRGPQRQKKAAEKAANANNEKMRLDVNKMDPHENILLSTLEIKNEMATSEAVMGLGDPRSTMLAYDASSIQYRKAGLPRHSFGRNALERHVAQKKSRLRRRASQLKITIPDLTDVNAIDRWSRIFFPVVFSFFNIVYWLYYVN
Chain of GABA-A receptor; alpha-1/beta-2/gamma-2 (P18508 whole entry): as the sequence (P18508 whole entry) above
Chain of GABA-A receptor; alpha-1/beta-2/gamma-2 (P62813 whole entry): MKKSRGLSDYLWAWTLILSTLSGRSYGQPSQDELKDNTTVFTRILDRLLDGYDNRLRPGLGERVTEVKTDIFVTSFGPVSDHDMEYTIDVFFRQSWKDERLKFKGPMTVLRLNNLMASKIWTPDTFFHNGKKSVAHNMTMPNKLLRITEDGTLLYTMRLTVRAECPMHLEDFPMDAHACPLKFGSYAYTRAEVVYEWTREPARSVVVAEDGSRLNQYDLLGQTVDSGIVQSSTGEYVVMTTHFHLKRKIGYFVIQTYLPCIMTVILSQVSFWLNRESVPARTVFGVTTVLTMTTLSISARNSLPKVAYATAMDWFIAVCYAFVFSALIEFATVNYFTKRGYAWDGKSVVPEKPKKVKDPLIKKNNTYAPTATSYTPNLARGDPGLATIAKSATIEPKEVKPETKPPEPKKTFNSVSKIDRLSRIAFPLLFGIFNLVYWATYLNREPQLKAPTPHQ
Chain of GABA-A receptor; alpha-1/beta-2/gamma-2 (P63138 whole entry): as the sequence (P63138 whole entry) above
T2 sequence (P18508 whole entry): as the sequence (P18508 whole entry) above
T2 sequence (P23576 whole entry): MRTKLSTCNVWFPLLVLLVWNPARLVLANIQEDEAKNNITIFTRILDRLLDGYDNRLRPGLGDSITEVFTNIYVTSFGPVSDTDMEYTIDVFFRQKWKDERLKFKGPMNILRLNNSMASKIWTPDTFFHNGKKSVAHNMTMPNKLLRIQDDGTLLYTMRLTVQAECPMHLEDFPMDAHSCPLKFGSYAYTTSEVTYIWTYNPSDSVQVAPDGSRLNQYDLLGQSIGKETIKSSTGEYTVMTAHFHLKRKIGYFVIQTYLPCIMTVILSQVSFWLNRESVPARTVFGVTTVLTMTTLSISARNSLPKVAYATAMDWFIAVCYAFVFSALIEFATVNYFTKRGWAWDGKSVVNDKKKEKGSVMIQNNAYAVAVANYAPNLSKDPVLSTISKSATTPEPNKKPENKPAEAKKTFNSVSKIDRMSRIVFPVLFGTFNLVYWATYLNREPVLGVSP
T2 sequence (P63138 whole entry): as the sequence (P63138 whole entry) above

## Oc1c(-c2ccsc2)cnc2c(-c3ccc4ccccc4c3)cnn12
[1]
  inhibition: 30%

## CN1C(=O)CN=C(c2ccccc2)c2cc(Cl)ccc21 [DIAZEPAM]
[2]
  No. of falls: 0.5
[3]
  Time: 117.5 s
[4]
  No. of falls: 0.7
[5]
  No. of crosses: 21.5
[6]
  No. of crosses: 22
[7]
  Time: 85 s

## Oc1c(-c2ccsc2)cnc2c(-c3cccnc3)cnn12
[1]
  inhibition: 100%
[8]
  Ki: 0.21 µM
[9]
  Ratio: 1.51
[10]
  Ki: 0.315 µM
[11]
  Ki: 0.03 µM
[12]
  Ki: 0.025 µM

## CN1C(=O)CN=C(c2ccccc2)c2cc(Cl)ccc21.Oc1c(-c2ccsc2)cnc2c(-c3ccccn3)cnn12
[13]
  No. of counts: 68
[14]
  No. of counts: 25.8
[15]
  No. of falls: 0.5
[16]
  Activity: 90%
[17]
  Time: 120.9 s
[18]
  No. of crosses: 26.2

## Oc1c(-c2ccsc2)cnc2c(-c3ccc(F)cc3)cnn12
[1]
  inhibition: 99%
[9]
  Ratio: 0.9
[11]
  Ki: 0.031 µM

## Oc1c(-c2ccsc2)cnc2c(-c3ccsc3)cnn12
[19]
  No. of crosses: 11.8
[1]
  inhibition: 100%
[13]
  No. of counts: 12.2
[14]
  No. of counts: 52.7
[8]
  Ki: 0.223 µM
[15]
  No. of falls: 0
[20]
  No. of falls: 0.3
[16]
  Activity: 36.4%
[21]
  Activity: 9.1%
[17]
  Time: 94.9 s
[9]
  Ratio: 1.3
[22]
  Time: 72.3 s
[10]
  Ki: 0.2 µM
[18]
  No. of crosses: 19.7
[23]
  Ki: 0.196 µM
[11]
  Ki: 0.016 µM
[12]
  Ki: 0.023 µM

## Oc1c(-c2ccsc2)cnc2c(-c3cccc4ccccc34)cnn12
[1]
  inhibition: 92%
[8]
  Ki: 0.156 µM
[9]
  Ratio: 1.02
[10]
  Ki: > 10 µM
[11]
  Ki: 0.04 µM
[12]
  Ki: 0.047 µM

## Oc1c(-c2ccsc2)cnc2c(-c3ccccn3)cnn12
[1]
  inhibition: 98%
[13]
  No. of counts: 96.6
[14]
  No. of counts: 55.9
[8]
  Ki: 0.74 µM
[15]
  No. of falls: 0.3
[20]
  No. of falls: 0.3
[16]
  Activity: 19%
[21]
  Activity: 10%
[17]
  Time: 90.6 s
[9]
  Ratio: 1.1
[24]
  No. of counts: 110.4
[10]
  Ki: 0.927 µM
[18]
  No. of crosses: 19.6
[25]
  No. of counts: 50.9
[11]
  Ki: 0.0039 µM
[12]
  Ki: 0.007 µM

## Oc1c(-c2ccsc2)cnc2c(-c3cccc(Br)c3)cnn12
[1]
  inhibition: 87%
[8]
  Ki: 0.022 µM
[9]
  Ratio: 1.72
[10]
  Ki: 0.291 µM
[23]
  Ki: 0.111 µM
[11]
  Ki: 0.0088 µM
[12]
  Ki: 0.01 µM

## Oc1c(-c2ccsc2)cnc2c(-c3ccccc3)cnn12
[1]
  inhibition: 94%
[9]
  Ratio: 1.71
[11]
  Ki: 0.111 µM

## COc1cccc(-c2cnn3c(O)c(-c4ccsc4)cnc23)c1
[1]
  inhibition: 92%
[8]
  Ki: 0.737 µM
[9]
  Ratio: 1.25
[11]
  Ki: 0.0422 µM
[12]
  Ki: 0.043 µM
[26]
  Ki: 0.827 µM

## Cc1ccc(-c2nc3ccc(C)cn3c2CC(=O)N(C)C)cc1.Oc1c(-c2ccsc2)cnc2c(-c3ccccn3)cnn12
[13]; 10 mg/kg
  No. of counts: 68 and 28.7
[14]; 10 mg/kg
  No. of counts: 25.8 and 9.38
[15]
  No. of falls: 1.1
[16]
  Activity: 90%

## Oc1c(-c2ccsc2)cnc2c(Cc3ccccc3)cnn12
[1]
  inhibition: 55%

## Oc1c(-c2ccsc2)cnc2c(-c3cccc(F)c3)cnn12
[1]
  inhibition: 92%
[9]
  Ratio: 1.2
[11]
  Ki: 0.073 µM

## Cc1ccc(-c2nc3ccc(C)cn3c2CC(=O)N(C)C)cc1 [ZOLPIDEM]
[13]
  No. of counts: 54.4
[27]
  No. of counts: 45
[14]
  No. of counts: 26.3
[15]
  No. of falls: 0.8
[28]
  Activity: 70%
[16]
  Activity: 90%
[29]
  No. of falls: 0.2
[30]
  No. of counts: 84.7

## Oc1c(-c2ccsc2)cnc2c(-c3cccc(C(F)(F)F)c3)cnn12
[19]
  No. of crosses: 12.7
[1]
  inhibition: 96%
[13]
  No. of counts: 139.6
[14]
  No. of counts: 60.7
[8]
  Ki: 0.207 µM
[15]
  No. of falls: 0.1
[20]
  No. of falls: 0.2
[16]
  Activity: 29.4%
[21]
  Activity: 0%
[17]
  Time: 69.4 s
[9]
  Ratio: 2
[22]
  Time: 77.3 s
[10]
  Ki: 0.54 µM
[18]
  No. of crosses: 17.1
[23]
  Ki: 0.089 µM
[11]
  Ki: 0.0058 µM
[12]
  Ki: 0.01 µM

## Cc1cccc(-c2cnn3c(O)c(-c4ccsc4)cnc23)c1
[1]
  inhibition: 97%
[9]
  Ratio: 2
[11]
  Ki: 0.026 µM
